In patent US10597398B2, “Suppression and regeneration promoting effect of low molecular weight compound on cancer and fibrosis” (NATIONAL UNIVERSITY CORPORATION TOTTORI UNIVERSITY, priority 2015, dated 2020):

Columns and labels:
Wnt/β-catenin signaling = assay: Inhibitory effect on Wnt/β-catenin signaling in mesenchymal stem cells (E7-TCF4 luciferase); assay type: cell-based, human; settings: concentration equal to or lower than that of IC-2
Method: A pTCF4-CMVpro-GL4.20 plasmid vector, having 3 copies of TCF4 motifs (CCT TTG ATC) upstream of aCMV promoter in a multiple cloning site of pGL4.20 (Promega Corp., Fitchburg, Wis.), was linearized and stably transfected into UE7T-13 cells to prepare E7-TCF4 cells. Also, a pCMVpro-GL4.20 plasmid vector, having a CMV promoter in a multiple cloning site of pGL4.20, was linearized and stably transfected into UE7T-13 cells. The resulting stable cells (E7-CMV cells) were cultured, like UE7T-13 cells, in 10% FBS/DMEM containing 0.25 μg/mL puromycin.
UE7T-13 cells were used to measure Wnt/β-catenin signaling activity. The concentrations of the respective compounds were as described in FIG. 42. Each control sample used was 0.1% DMSO, a solvent for each compound.
First, 70 to 90% confluent E7-TCF4 cells and E7-CMV cells were harvested and seeded (n=3) at 1.6758×10^4 cells/well of a 24-well plate (9.0×10^3 cells/cm^2). One day after that, each compound was added to the cells and the mixture was cultured at 37° C. Day 4 after the compound addition, the culture medium was changed.
At day 1, 4, or 8 after the compound treatment, the culture medium was discarded, and 100 μL of room temperature 5×Passive Lysis Buffer (PLB), which had been diluted 5-fold with MilliQ water, was added to each well. Next, the plate was shaken at room temperature for 15 min and was then frozen at −30° C. overnight. A Luciferase Assay Substrate was diluted with 10 mL of room temperature Luciferase Assay Buffer II to prepare Luciferase Assay Reagent II (LARII). The frozen PLB lysate samples were thawed and permeabilized for 15 min. Then, 10 μL aliquots were added to wells of a 96-well white plate. While 50 μL aliquots of LARII were each added to each well, luminescence was quantified by using a 1420 multi-label counter ARVO MX to determine firefly luciferase activity.

[1] = system: CD44-positive HuH-7 cells; assay: Liver cancer model mouse, tumor volume; assay type: in vivo, mice; settings: 50 mg/kg IC-2 vs 30 mg/kg 5-FU, intraperitoneally every three days
Method: CD44-positive HuH-7 cells were subcutaneously transplanted in mice. Next, the engrafted mice were divided into 3 groups (DMSO group: 5 mice; 5-FU group: 4 mice; and IC-2 group: 4 mice). Then, DMSO was added to prepare 30 mg/kg of 5-FU and 50 mg/kg of IC-2 such that each liquid volume was 100 μL; and 100% DMSO, a solvent for each drug, was used as a control sample. Subsequently, each drug was dosed intraperitoneally every three days. The body weight of each mouse and the long and short diameters of a tumor were measured every three days. The tumor volume was calculated by using the following equation: Tumor volume=Long diameter×(Short diameter)^2×0.5. The volume at Day 0 was used to normalize each tumor volume, and then a graph was created. To fully evaluate a 5-FU effect, the 5-FU dose was set to an amount 2 times the regular amount 15 mg/kg used in research articles. The concentration of IC-2 corresponding to a concentration at which Wnt/β-catenin signaling was inhibited in vitro was calculated. Then, the concentration was doubled to set an IC-2 dose.

unsorted HuH-7 cells = assay: Mice subcutaneously transplanted with unsorted HuH-7 cells; assay type: in vivo; settings: mice transplanted with unsorted HuH-7 cells instead of CD44-positive HuH-7 cells
Excerpt: The effect of treating malignant tumors may be evaluated by imaging, endoscopic examination, biopsy, or detection of a malignant tumor marker. In addition, the effect of treating cancer stem cells may be evaluated by imaging, endoscopic examination, biopsy, or detection of a cancer stem cell marker. In addition, the effect of treating fibrosis may be evaluated by imaging, endoscopic examination, biopsy, or detection of a fibrosis marker. […] At this time, the level of a marker after administration of a therapeutic drug may be 0.7, 0.5, 0.3, or 0.1 times the level before the administration (or of a control). […] At this time, the number of marker-positive cells after administration of the therapeutic drug may be 0.7, 0.5, 0.3, or 0.1 times the number before the administration (or of a control). Note that in Example 6 below, the therapeutic effect was evaluated using mice in which CD44-positive HuH-7 cells had been subcutaneously transplanted. The present inventors also replaced the above CD44-positive HuH-7 cells by unsorted HuH-7 cells.

[2] = system: CD44-expressing HSC2 cells; assay: CD44-expressing cells in HSC2 cells (cell sorter analysis); assay type: cell-based, human; settings: 48 h, 25 μM IC-2 or 0.5 μM 5-FU, 83.9% without treatment
Method: In addition, HSC2 cells were seeded at 5×10^5 cells/10-cm cell culture dish (TPP). After 24 h, the cells were treated with 0.5 μM of 5-FU or 25 μM of IC-2. Also prepared were cells without low-molecular-weight compound treatment (0 μM). After additional 48 h, the respective cells were harvested. As a primary antibody, used was a mouse anti-human CD44 antibody (Abcam Ltd., Cambridge, UK). Then, Alexa Fluor 488-labeled goat anti-mouse IgG (H+L) (Life Technologies Corp., Carlsbad, Calif.) was used. After that, a cell sorter BD bioscience FACS Aria (Becton, Dickinson and Company, Franklin Lakes, N.J.) was used for analysis.

Compound	inhibitory effect on Wnt/β-catenin signaling pathway in mesenchymal stem cells compared with IC-2 (Wnt/β-catenin signaling)	anti-malignant tumor therapeutic effect (tumor volume) [1]	effect of treating a malignant tumor (unsorted HuH-7 cells)	percentage of CD44-expressing cells [2] [%]
COc1ccc(COc2ccc(CNC(=O)N3CCC(=O)N4C(Cc5ccccc5)C(=O)N(Cc5cccc6ccccc56)CC34)cc2)cc1 (stereo not shown) [IC-2-OPMB]	more potent inhibitory effect	–	–	–
O=C1C(Cc2ccccc2)N2C(=O)CCN(C(=O)NCc3ccccc3)C2CN1Cc1cccc2ccccc12 (stereo not shown) [IC-2]	–	more remarkable anti-malignant tumor therapeutic effect than 5-FU	exhibits an effect of treating a malignant tumor	71.4
